Source: patent US20260068885A1, “HERBICIDAL COMPOSITIONS” (BAYER AKTIENGESELLSCHAFT, priority 2022, published 2026)

How the values were obtained:
Assay in all cases: Post-emergence herbicidal action against harmful plants (greenhouse)
Type in all cases: in vivo
[1] = system: Abutilon theophrasti (ABUTH)
Cyperus iria (CYPIR) = system: Cyperus iria (CYPIR)
[2] = system: Erigeron bonariensis (ERIBO)
Setaria viridis (SETVI) = system: Setaria viridis (SETVI)
Solanum nigrum (SOLNI) = system: Solanum nigrum (SOLNI)
[3] = system: Brachiaria platyphylla (BRAPP)
In short: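 Weed and crop seeds were sown in sandy loam soil in wood-fibre pots, covered with soil, and grown in a greenhouse under good conditions. At the one-leaf stage, 2 to 3 weeks after sowing, plants were sprayed on green parts with WP or EC formulations as aqueous suspension or emulsion at 600 to 800 l/ha water plus 0.2% wetting agent. Herbicidal action was visually scored in percent versus untreated controls.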

Emex australis (EMEAU) = system: Emex australis (EMEAU)
In short: (§1)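 Plants grown from seed in sandy loam in the greenhouse were sprayed at the one-leaf stage, 2 to 3 weeks after sowing, with WP or EC formulations as aqueous suspension/emulsion at 600 to 800 l/ha water plus 0.2% wetting agent. Damage was rated visually after about 3 weeks versus untreated controls (0% = like control, 100% = dead).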

[4] = system: Euphorbia heterophylla (EPHHL); conditions: for Herbicidal efficacy: EPHHL 21 DAT
In short: as §1

[5] = system: Sorghum halepense (SORHA)
In short: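 Monocot and dicot weed and crop seeds were sown in sandy loam soil in wood-fibre pots, covered with soil, and grown in a greenhouse under good conditions. At the one-leaf stage, 2 to 3 weeks after sowing, the green plant parts were sprayed with compounds formulated as WP or EC in aqueous suspension or emulsion at 600 to 800 l/ha water plus 0.2% wetting agent. Herbicidal action (%) was scored visually against untreated controls, where 100% means the plants died and 0% means they look like controls.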

[6] = system: Xanthium strumarium (XANST)
[7] = system: Pharbitis purpurea (PHBPU)
[8] = system: Polygonum convolvulus (POLCO)
[9] = system: Xanthium strumarium (XANST); remark: listed apart in the source
[10] = application rate 2 g a.i./ha, 21 DAT

## Cc1nnc(NC(=O)c2ccc(C(F)(F)F)c([S@+](C)[O-])c2Cl)o1 [I-5]
[1]; ABUTH 10 DAT, 0.5 g a.i./ha
  Herbicidal efficacy: 20%
[1]; ABUTH 10 DAT, 2 g a.i./ha
  Herbicidal efficacy: 60%
[1]; ABUTH 21 DAT, 0.5 g a.i./ha
  Herbicidal efficacy: 10%
[1]; ABUTH 21 DAT, 2 g a.i./ha
  Herbicidal efficacy: 30%
Cyperus iria (CYPIR); CYPIR 10 DAT, 0.5 g a.i./ha
  Herbicidal efficacy: 50%
Cyperus iria (CYPIR); CYPIR 10 DAT, 2 g a.i./ha
  Herbicidal efficacy: 80%
Cyperus iria (CYPIR); CYPIR 21 DAT, 0.5 g a.i./ha
  Herbicidal efficacy: 40%
Cyperus iria (CYPIR); CYPIR 21 DAT, 2 g a.i./ha
  Herbicidal efficacy: 60%
[2]; ERIBO 10 DAT, 0.5 g a.i./ha
  Herbicidal efficacy: 0%
[2]; ERIBO 10 DAT, 2 g a.i./ha
  Herbicidal efficacy: 10%
[2]; ERIBO 21 DAT, 0.5 g a.i./ha
  Herbicidal efficacy: 0%
[2]; ERIBO 21 DAT, 2 g a.i./ha
  Herbicidal efficacy: 0%
[2]; [10]
  Herbicidal efficacy [%] against ERIBO 21 DAT: 40%
Setaria viridis (SETVI); SETVI 10 DAT, 0.5 g a.i./ha
  Herbicidal efficacy: 20%
Setaria viridis (SETVI); SETVI 10 DAT, 2 g a.i./ha
  Herbicidal efficacy: 40%
Setaria viridis (SETVI); SETVI 21 DAT, 0.5 g a.i./ha
  Herbicidal efficacy: 10%
Setaria viridis (SETVI); SETVI 21 DAT, 2 g a.i./ha
  Herbicidal efficacy: 20%
Solanum nigrum (SOLNI); SOLNI 10 DAT, 0.5 g a.i./ha
  Herbicidal efficacy: 20%
Solanum nigrum (SOLNI); SOLNI 10 DAT, 2 g a.i./ha
  Herbicidal efficacy: 60%
Solanum nigrum (SOLNI); SOLNI 21 DAT, 0.5 g a.i./ha
  Herbicidal efficacy: 0%
Solanum nigrum (SOLNI); SOLNI 21 DAT, 2 g a.i./ha
  Herbicidal efficacy: 20%
Solanum nigrum (SOLNI); application rate 0.5 g a.i./ha
  Herbicidal efficacy [%] against SOLNI 10 DAT: 20%
  Herbicidal efficacy [%] against SOLNI 21 DAT: 0%
Solanum nigrum (SOLNI); application rate 2 g a.i./ha
  Herbicidal efficacy [%] against SOLNI 10 DAT: 60%
  Herbicidal efficacy [%] against SOLNI 21 DAT: 20%
[3]; BRAPP 10 DAT, 0.5 g a.i./ha
  Herbicidal efficacy: 0%
[3]; BRAPP 10 DAT, 2 g a.i./ha
  Herbicidal efficacy: 30%
[3]; BRAPP 21 DAT, 0.5 g a.i./ha
  Herbicidal efficacy: 0%
[3]; BRAPP 21 DAT, 2 g a.i./ha
  Herbicidal efficacy: 0%
Emex australis (EMEAU); EMEAU 10 DAT, 0.5 g a.i./ha
  Herbicidal efficacy: 20%
Emex australis (EMEAU); EMEAU 10 DAT, 2 g a.i./ha
  Herbicidal efficacy: 20%
Emex australis (EMEAU); EMEAU 21 DAT, 0.5 g a.i./ha
  Herbicidal efficacy: 0%
Emex australis (EMEAU); EMEAU 21 DAT, 2 g a.i./ha
  Herbicidal efficacy: 10%
Emex australis (EMEAU); application rate 0.5 g a.i./ha, 10 DAT
  Herbicidal efficacy [%] against EMEAU 10 DAT: 30%
Emex australis (EMEAU); application rate 0.5 g a.i./ha
  Herbicidal efficacy [%] against EMEAU 21 DAT: 20%
Emex australis (EMEAU); application rate 2 g a.i./ha
  Herbicidal efficacy [%] against EMEAU 21 DAT: 88%
[4]; 0.5 g a.i./ha
  Herbicidal efficacy: 0%
[4]; 2 g a.i./ha
  Herbicidal efficacy: 10%
[4]; application rate 0.5 g a.i./ha
  Herbicidal efficacy [%] against EPHHL 21 DAT: 30%
[4]; application rate 2 g a.i./ha
  Herbicidal efficacy [%] against EPHHL 21 DAT: 40%
[5]; application rate 0.5 g a.i./ha
  Herbicidal efficacy [%] against SORHA 10 DAT: 0%
  Herbicidal efficacy [%] against SORHA 21 DAT: 0%
[5]; application rate 2 g a.i./ha
  Herbicidal efficacy [%] against SORHA 10 DAT: 20%
  Herbicidal efficacy [%] against SORHA 21 DAT: 10%
[5]; application rate 2 g a.i./ha, table with flufenoximacil
  Herbicidal efficacy [%] against SORHA 10 DAT: 90%
[6]; application rate 0.5 g a.i./ha
  Herbicidal efficacy [%] against XANST 21 DAT: 10%
[6]; application rate 2 g a.i./ha
  Herbicidal efficacy [%] against XANST 21 DAT: 20%
[7]; PHBPU 10 DAT, 0.5 g a.i./ha
  Herbicidal efficacy: 0%
[7]; PHBPU 10 DAT, 2 g a.i./ha
  Herbicidal efficacy: 20%
[7]; PHBPU 21 DAT, 0.5 g a.i./ha
  Herbicidal efficacy: 0%
[7]; PHBPU 21 DAT, 2 g a.i./ha
  Herbicidal efficacy: 0%
[7]; application rate 0.5 g a.i./ha, 21 DAT
  Herbicidal efficacy [%] against PHBPU 21 DAT: 40%
[8]; POLCO 10 DAT, 0.5 g a.i./ha
  Herbicidal efficacy: 0%
[8]; POLCO 10 DAT, 2 g a.i./ha
  Herbicidal efficacy: 0%
[8]; POLCO 21 DAT, 0.5 g a.i./ha
  Herbicidal efficacy: 0%
[8]; POLCO 21 DAT, 2 g a.i./ha
  Herbicidal efficacy: 0%
[8]; [10]
  Herbicidal efficacy [%] against POLCO 21 DAT: 30%
[9]; application rate 0.5 g a.i./ha
  Herbicidal efficacy [%] against XANST 10 DAT: 20%
[9]; application rate 0.5 g a.i./ha, 21 DAT, table with flufenoximacil
  Herbicidal efficacy [%] against XANST 21 DAT: 30%
[9]; application rate 2 g a.i./ha
  Herbicidal efficacy [%] against XANST 10 DAT: 30%
